Values quoted from earlier work, collected in patent US20190274986A1, “STERILE INJECTABLE COMPOSITION COMPRISING MELPHALAN” (CADILA HEALTHCARE LIMITED, priority 2018, published 2019).
Like-named read-outs stand apart in the source and are kept apart here.

How the values were obtained:
[1] = not given; remark: listed apart in the source

Compound	Solubility (in 1 N HCl)	Solubility (in methanol)	Solubility (in water)	Dose with evidence of renal cellular toxicity ([1]; animal studies, repeated administration over 1-6 months)	Renal function on repeated administration ([1]; animal studies, repeated administration, even at much higher doses)	Renal effect in single-dose studies ([1]; animal trials, single-dose up to 2000 mg/kg i.v.)
Cl.N[C@@H](Cc1ccc(N(CCCl)CCCl)cc1)C(=O)O [Melphalan, 4-[bis(2-chloroethyl)amino]-L-phenylalanine hydrochloride]	freely soluble	freely soluble	practically insoluble			
sulfobutylether beta-cyclodextrin				≥ 160 mg/kg/day	renal function was not impaired	renal tolerance
